Measured values taken from patent EP3727043B1 (Golden Gait Biotech, S.L., priority 2017, dated 2019).
Like-named read-outs stand apart in the source and are kept apart here.

Columns and labels:
[1] = target: β2* nAChR (Homo sapiens, UniProt P17787); settings: nAChR subtype: β2; cited from earlier work
[2] = cited from earlier work
[3] = cited from earlier work; remark: listed apart in the source
[4] = test system: rats with a unilateral 6-hydroxydopamine lesion; assay: LIDs in rats with a unilateral 6-hydroxydopamine lesion; type: in vivo; settings: parkinsonian rat model of LIDs
[5] = target: α7 nAChR (Homo sapiens, UniProt P36544); settings: nAChR subtype: α7; cited from earlier work
[6] = test system: rats and mice; settings: oral application, injection and slow-release minipumps
[7] = test system: α4β2* nAChR knockout mice
Description: Multiple receptors exist throughout the body with α1β1*, α3β4* and α7 nAChRs being the major subtypes in the peripheral nervous system and α4β2*, α6β2* and α7 nAChRs the primary ones in the brain. The *asterisk denotes the presence of other nAChR subunits in the receptor.

[8] = test system: patients with idiopathic PD and levodopa induced dyskinesias (LIDs)
Protocol: At the time the study was performed (2009), there was no FDA accepted instrument for measuring treatment efficacy for LIDs. Therefore, several secondary objectives were utilized to assess efficacy including the Unified Dyskinesia Rating Scale (UDysRS).
A total of 65 male and female subjects with idiopathic PD with LIDs were randomized in the study. The study consisted of 4 phases (FIG. 6A): screening phase (up to 3 weeks), double-blind treatment phase (10 weeks), taper phase (2 weeks), and follow-up phase (2 weeks). The approximate duration of the study for each subject was 17 weeks. […] During the double-blind treatment phase, dosing was begun at Visit 0 at 1 mg every 6 hours (total daily dose [TDD] = 4 mg/day) and escalated upwards at 2-week intervals as follows: 2 mg every 6 hours (TDD = 8 mg/day) at Visit 1 (Week 2); 4 mg every 6 hours (TDD = 16 mg/day) at Visit 2 (Week 4); 6 mg every 6 hours (TDD = 24 mg/day) at Visit 3 (Week 6). Subjects were maintained on 24 mg/day for 4 weeks. The subsequent taper phase (2 weeks total), beginning at Visit 4 (Week 10), consisted of 9 days of drug taper and 5 days off drug prior to Visit 5 (final safety visit). […] Ondansetron was provided by the sponsor and dispensed with each dose escalation step with instructions to use it for nausea and vomiting only during the first 4 days following dose initiation or escalation. […] No other dose down-titration was allowed. Table 5. Dose Escalation Schedule
A total of 65 patients with idiopathic PD and levodopa induced dyskinesias (LIDs) were randomized. Patients were required to have a diagnosis of idiopathic PD and be within a Hoehn & Yahr Stage II - IV while in a peak "ON" state(levodopa in a therapeutic range). They had to have moderate to severely disabling LIDs for at least 25% of the waking day, as determined by Questions 32 and 33 in Part II of the UPDRS and a Mini-Mental State Examination (MMSE) score of ≥26. Patients with atypical Parkinson disorders, prior deep brain stimulation (DBS), unstable angina, a history of ventricular arrhythmias, or active peptic ulcer or a history of schizophrenia, schizoaffective disorder, or bipolar disease were excluded. Patients who actively smoked were also excluded. Table 9: Demographics
The drug, or a placebo identical in appearance and packaging, was administered orally 4 times a day in a blinded fashion. Patients were examined while in an "ON" state, when levodopa was in a therapeutic range. During the treatment phase, dosing was begun at 1 mg every 6 hours (total daily dose=4 mg/day) and escalated upwards at 2-week intervals as follows: 2 mg every 6 hours at Visit 1; 4 mg every 6 hours at Visit 2; 6 mg every 6 hours at Visit 3. Patients were maintained on 24 mg/day for 4 weeks. All patients, study site personnel, raters and the sponsor were blinded to treatment assignment.
The original UPDRS scale was used. […] In the UPDRS Part II, Question 13 is on Falling unrelated to Freezing. […] In Part II, Question 14 is on Freezing when Walking. This is a 5-point item and has two variables freezing and falls. […] Questions 13 and 14 were compared separately (Table 11). […] Table 10: UPDRS Part II (ADL), UPDRS Part III (Motor Examination)
LIDs were assessed by the UDysRS, the main measure of LIDs (Table 12). […] The study was conducted in accordance with the Declaration of Helsinki and Good Clinical Practice Guidelines. All sites received approval from an institutional review board and written informed consent was obtained from each patient prior to participation. Table 12. Unified Dyskinesia Rating Scale (UDysRS)
All hypotheses were tested using 2-sided tests with alpha set at the 0.050 level of significance. In general, efficacy data were summarized by treatment group, and safety data were summarized by treatment group and overall.

[9] = in vivo; cited from earlier work
[10] = test system: patients with idiopathic PD and levodopa induced dyskinesias (LIDs); settings: for worsening of Parkinson symptoms (UPDRS Part III, Hoehn and Yahr scales): during the study
Protocol: Efficacy was measured with the Unified Dyskinesia Rating Scale (UDysRS), a semi- quantitative assessment, FDA-validated instrument to assess gait, balance and dyskinesia in PD. […] Dosing was begun at 1 mg every 6 hours to a final dose of 24 mg per day.
All hypotheses were tested using 2-sided tests with alpha set at the 0.050 level of significance. In general, efficacy data were summarized by treatment group, and safety data were summarized by treatment group and overall. In all analyses, assumptions such as normality and homogeneity of variance were examined prior to conducting the proposed parametric statistical procedures. Categorical variables were analyzed by Fisher's exact 2- tailed test and continuous variables were tested under 2-sample t-tests. The equality of variances was examined using an F-test before applying the 2-sample t-test.

[11] = Phase 2 data used for sample size calculation

Chain of β2* nAChR (P17787 26-502): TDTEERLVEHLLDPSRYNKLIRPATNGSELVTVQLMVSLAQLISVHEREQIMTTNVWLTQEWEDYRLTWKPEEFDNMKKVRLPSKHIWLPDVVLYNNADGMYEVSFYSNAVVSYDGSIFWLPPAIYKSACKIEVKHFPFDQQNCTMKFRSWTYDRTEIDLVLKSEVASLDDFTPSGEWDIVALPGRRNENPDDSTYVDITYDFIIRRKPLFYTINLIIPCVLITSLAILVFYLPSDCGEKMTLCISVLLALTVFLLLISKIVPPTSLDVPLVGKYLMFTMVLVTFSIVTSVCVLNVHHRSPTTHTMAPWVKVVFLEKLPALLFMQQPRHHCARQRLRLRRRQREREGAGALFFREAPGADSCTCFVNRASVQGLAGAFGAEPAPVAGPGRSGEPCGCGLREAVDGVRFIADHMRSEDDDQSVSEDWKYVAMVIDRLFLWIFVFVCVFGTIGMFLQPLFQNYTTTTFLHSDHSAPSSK
Chain of α7 nAChR (P36544 23-502): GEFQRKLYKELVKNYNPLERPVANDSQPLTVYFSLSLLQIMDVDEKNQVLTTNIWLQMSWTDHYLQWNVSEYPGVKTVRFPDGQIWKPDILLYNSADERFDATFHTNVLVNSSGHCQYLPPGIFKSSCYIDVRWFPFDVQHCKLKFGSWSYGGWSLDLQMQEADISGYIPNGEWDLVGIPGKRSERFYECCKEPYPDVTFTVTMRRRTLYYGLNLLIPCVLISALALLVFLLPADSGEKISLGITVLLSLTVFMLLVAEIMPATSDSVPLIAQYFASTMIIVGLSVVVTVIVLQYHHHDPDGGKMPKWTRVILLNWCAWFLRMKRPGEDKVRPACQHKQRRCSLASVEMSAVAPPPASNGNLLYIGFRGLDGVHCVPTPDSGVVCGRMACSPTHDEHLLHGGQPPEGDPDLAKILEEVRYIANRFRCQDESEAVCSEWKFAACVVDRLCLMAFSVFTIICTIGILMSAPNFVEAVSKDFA

Structure (SMILES): Clc1cc(N2C[C@@H]3CN[C@@H]3C2)cnc1Cl [ABT-894]
- Ki [1]: 0.0003 µM

Structure (SMILES): N[C@@H](Cc1ccc(O)c(O)c1)C(=O)O [Levodopa, (S)-2-amino-3-(3,4-dihydroxyphenyl) propanoic acid]
- plasma half-life of levodopa ([2]; without carbidopa): 50 min
- solubility in water [3]: slightly soluble in water

Structure (SMILES): CN[C@@H](C)C/C=C/c1cncc(OC(C)C)c1 [TC-2696]
- reduction of LIDs [4]: reduced LIDs to varying extents

Structure (SMILES): c1cc2cc(-c3ccc(O[C@H]4CN5CCC4CC5)nn3)ccc2[nH]1 [ABT-107]
- Ki [5]: 0.0005 µM

Structure (SMILES): Cc1ncccc1OC[C@@H]1CCCN1 [ABT-089]
- Ki [1]: 0.017 µM

Structure (SMILES): O=C(c1ccc(Cl)o1)N1CC2CNCC2C1 (centres unmarked) [AZD 1446]
- Ki [1]: 0.03 µM

Structure (SMILES): c1cncc(OC[C@@H]2CCN2)c1 [A-85380]
- reduction of LIDs [4]: reduced LIDs to varying extents

Structure (SMILES): CN1CCC[C@H]1c1cccnc1 [Nicotine, (S)-3-[1-methylpyrrolidin-2-yl]pyridine, reference compound]
- reduction of LIDs [6]: reduced LIDs
- antidyskinetic effect [7]: did not exert an antidyskinetic effect
- UDysRS part III, Week 10 result; change from baseline, mean [8, 11]: 5.2
- UDysRS walking, Week 10 result; change from baseline, mean [8, 11]: 4.4
- PGI-C responders (subjects with a score of 1, 2, or 3) ([8]; Visit 4 (Week 10), 21 responders, p = 0.0048 vs placebo): 77.8%
- number of LF-ADL responders (subjects with ≥25% reduction from baseline), difference between treatment groups ([8]; Visit 4 (Week 10), p = 0.0453): statistically significant difference
- Gait-subtest of the UDysRS versus placebo ([8]; human, in vivo): statistically superior to placebo
- patient- and physician-rated assessments of efficacy versus placebo ([8]; human, in vivo): superior to placebo
- oral bioavailability [9]: approximately 30%
- worsening of Parkinson symptoms (UPDRS Part III, Hoehn and Yahr scales) [10]: no worsening of Parkinsonian symptoms
- worsening of Parkinson symptoms (UPDRS Part III, Hoehn and Yahr scales) ([10]; listed as nicotine): did not cause any worsening of the PD symptoms
- subjects who completed the study ([10]; of 35 randomized): 25 subjects
- subjects who withdrew because of AEs ([10]; of 35 randomized): 6 subjects
- subjects who withdrew because of protocol violations ([10]; of 35 randomized): 2 subjects
- subjects who withdrew from the study ([10]; of 35 randomized): 10 subjects
- subjects who withdrew because of AEs ([10]; of 35 randomized, listed as nicotine): Six

Structure (SMILES): Cc1ccc(-c2ccc(OC3CN4CCC3CC4)cn2)cc1 (centres unmarked) [AQW051]
- Ki [5]: 0.027 µM

Structure (SMILES): OCCCCC#Cc1cncc(OC[C@@H]2CCN2)c1 [sazetidine]
- reduction of LIDs [4]: reduced LIDs to varying extents

Structure (SMILES): C[C@@](Cc1ccc(O)c(O)c1)(NN)C(=O)O [Carbidopa, (-)-L-α-hydrazino-α-methyl-β-(3,4-dihydroxybenzene) propanoic acid monohydrate]
- reduction of the amount of levodopa required to produce a given response ([2]; in vivo): about 75%
- solubility in water [3]: slightly soluble in water

Structure (SMILES): c1cnc2cc3c(cc2n1)[C@@H]1CNC[C@H]3C1 [Varenicline]
- reduction of LIDs [4]: reduced LIDs to varying extents
